Results on two molecules are retold here after patent US20220378821A1, “METHODS OF TREATING BRAF-MUTATED CANCER CELLS” (EFFECTOR THERAPEUTICS, INC., priority 2019, published 2022).

The subject of series [1] is RKO xenografts (BRAF mutant). The series can be described thus: In vivo tumor growth inhibition, RKO xenografts. How it is done:
(§1) Athymic nude mice were purchased from Simonsen Laboratories (Gilroy, Calif.). C.B-17 SCID mice were purchased from Charles River (Hollister, Calif.). All animal studies were carried out in accordance with the guidelines established by the Institutional Animal Care and Use Committee at Explora BioLabs (San Diego, Calif.). COLO 205 and RKO cells were purchased from ATCC (Manassas, Va.). COLO 205 cells were maintained in RPMI-1640 supplemented with 10% fetal bovine serum. RKO cells were maintained in DMEM supplemented with 10% fetal bovine serum. For COLO 205 xenograft studies, COLO 205 (2×10^6) cells were implanted subcutaneously into athymic nude mice. On day 8 post-implant, tumors were measured (˜103 mm^3) and tumor-bearing animals were randomized into treatment groups. For RKO xenograft studies, RKO cells (5×10^6) were implanted subcutaneously into C.B-17 SCID mice. On day 11 post-implant, tumors were measured (˜153 mm^3) and tumor-bearing animals were randomized into treatment groups. Animals were dosed orally with vehicle or Compound Y daily. Tumor size and body weight were monitored during the course of the study. Tumor size was measured in length and width with a caliper 2× per week. The tumor volume was calculated by the formula L×W×W/2 according to NCI standards.

Series [2] relates to COLO 205 xenografts (BRAF mutant). The series can be described thus: In vivo tumor growth inhibition, COLO 205 xenografts. The following applies: for tumor growth inhibition (TGI): COLO 205 xenografts. How it is done: To test whether eIF4E inhibition affected the growth of BRAF mutant tumors in vivo, COLO 205 cells were grown as tumor xenografts in athymic nude mice and animals were dosed daily with vehicle or Compound Y, having the following structure
as §1

Series [3] deals with panel of 100 tumor cell lines. The series can be described thus: OncoPanel apoptosis profiling (activated caspase-3). The series is classed as cell-based. The method, then: (§2) In order to assess cellular phenotypes arising from eIF4E inhibition, Compound X was profiled in a panel of 100 tumor cell lines. Compound X was profiled using the OncoPanel Cell-Based Profiling Service (Eurofins Pharma Discovery Services, St. Charles, Mo.). Briefly, cell lines used in the panel were grown in RPMI 1640, 10% FBS, 2 mM L-alanyl-L-glutamine, 1 mM Na pyruvate, or a special medium. Cells were seeded into 384-well plates and incubated in a humidified atmosphere of 5% CO2 at 37° C. Compounds were added the day following cell seeding. At the same time, a time zero untreated cell plate was generated. After a 3-day incubation period, cells were fixed and stained with fluorescently-labeled antibodies and nuclear dye to allow imaging of nuclei, apoptotic cells and mitotic cells.
(§3) was serially diluted in half-log steps from 10 μM and assayed over 10 concentrations with a maximum assay concentration of 0.1% DMSO. Automated fluorescence microscopy was carried out using a Molecular Devices ImageXpress Micro XL high-content imager, and images were collected with a 4× objective. 16-bit TIFF images were acquired and analyzed with MetaXpress 5.1.0.41 software.
An antibody to activated caspase-3 was used to label cells from early to late stage apoptosis (Thornberry et al., 1998, Science 281:1312-1316). […] A 5-fold induction in the caspase-3 signal was scored as a significant apoptosis induction.

In series [4] the test system is panel of 100 tumor cell lines. Nature of the series: OncoPanel cell proliferation profiling (nuclear dye relative cell count). The class given is cell-based. Particulars: for IC50: across the panel of 100 cell lines. The method, then:
as §2, §3
Cell proliferation was measured by the fluorescence intensity of an incorporated nuclear dye. The output is referred to as the relative cell count, where the measured nuclear intensity is transformed to percent of control (POC) using the following formula: […]
where Ix the nuclear intensity at concentration x, and I0 is the average nuclear intensity of the untreated vehicle wells.
Cellular response parameters were calculated using nonlinear regression to a sigmoidal single-site dose response model:
where y is a response measured at concentration x, A and B are the lower and upper limits of the response, C is the concentration at the response midpoint (EC50), and D is the Hill Slope (Fallahi-Sichani et al., 2013, Nat. Chem. Biol. 9:708-714).
Cell count IC50 is the test compound concentration at 50% of maximal possible response.

Read-outs that look alike come from different tables or passages of the source.

Consider `Cc1cc(-c2cc(Cl)ccc2OCCn2c(C)nc3cc(C(F)(F)F)c(N4CCN(C)CC4)c(C#N)c3c2=O)c2scc(C(=O)O)c2n1` [Compound Y], for which the “tolerability (body weight)” value is on record as “well tolerated” in series [1] (RKO study, no significant changes in body weight) and “well tolerated” in series [2] (COLO 205 study, no significant changes in body weight). The “tumor growth inhibition (TGI)” value turned out to be 54% in series [1] (RKO xenografts, 30 mg/kg orally daily); 49% in series [2] (3 mg/kg orally daily); 89% in series [2] (30 mg/kg orally daily).
In the case of `Cc1cc(-c2cc(Cl)ccc2OCCn2c(C)nc3cc(C(F)(F)F)c(CN4CCN(C)CC4)c(C#N)c3c2=O)c2scc(C(=O)O)c2n1` [Compound X], the “BRAF mutant cell lines among those with significant induction of apoptosis” value in series [3] (of the 36 cell lines with >5-fold activated caspase-3) amounted to 10. Moreover, the “cell lines that showed significant induction of apoptosis (>5-fold induction of activated caspase-3)” value in series [3] (of the panel of 100 cell lines) came out at 36. In addition, the IC50 was 116 nM in series [4] (72 h, 3-day incubation, read-out: median IC50 value for cell proliferation) and 12 to 10000 nM in series [4] (upper end printed as >10,000 nM, read-out: distribution of IC50 values for cell proliferation). Also, the “cell lines tested with IC50 values below the median” value in series [4] (hematological, head and neck, NSCLC, melanoma, uterine and pancreatic tumor cell lines) is on record as greater than 74%.
